Data set [1] deals with arrhythmias in mice subjected to chloroform anesthesia. As to the kind of experiment: Arrhythmias in mice subjected to chloroform anesthesia. Type of data set: in vivo. To be noted: intraperitoneally, 100 mg/kg.
A short description of data set [2]: Toxicity determined in mice, oral and intraperitoneal administration. Type of data set: in vivo. The protocol:
The toxicity was determined in mice for various ways of administration.

Data set [3] relates to right auricle of a guinea pig. As to the kind of experiment: Chronotropic effect induced by histamine on the spontaneously beating right auricle of a guinea pig. As to conditions: Cavia porcellus, 100 microg/ml, 5 microg/ml of histamine.
The test system of data set [4] is edema of a rat's foot induced by carrageenan. As to the kind of experiment: Edema of a rat's foot induced by carrageenan. The format is in vivo. To be noted: orally, 200 mg/kg.
Data set [5] concerns convulsions induced by bicuculline. Description: Convulsions induced by injection of bicuculline. Type of data set: in vivo.
Data set [6] deals with GABA transaminase. As to the kind of experiment: Action on GABA transaminase, concluded from second administration of bicuculline. Type of data set: in vivo. As to conditions: concluded from lack of inhibition of convulsions at second bicuculline administration 5 hours later.

Structures are written as SMILES.

As to `O=C(NC1=NCC(CN2CCCCC2)O1)Nc1ccccc1` (centres unmarked) [Example 2, N-Phenyl-N'-(5-piperidinomethyl-2-oxazoline-2-yl)urea], the appearance of arrhythmias result in data set [1] was “prevented the appearance of arrhythmias”. In addition, the mortality entry in data set [2] (intraperitoneally at 200 mg/kg) and in data set [2] (orally at 300 mg/kg) was “did not cause any mortality” in each case.
For the compound `CCN(CC)CC1CN=C(NC(=O)Nc2ccccc2)O1` (centres unmarked) [Example 1, N-(5-diethylaminomethyl-2-oxazolin-2-yl)-N'-phenylurea], the inhibition (commonly the drop in the measured response relative to a control, in per cent) at 100 µg/mL in data set [3] was > 50%. Further, the appearance of arrhythmias entry in data set [1] is listed as “prevented the appearance of arrhythmias”. For the same compound, the mortality result in data set [2] (intraperitoneally at 200 mg/kg) and in data set [2] (orally at 300 mg/kg) was “did not cause any mortality” each time. Moreover, in data set [4], the “inhibition of edema of a rat's foot induced by carrageenan” value is on record as 51%.
With `O=C(NC1=NCC(CN2CCc3ccccc3C2)O1)Nc1ccccc1` (centres unmarked) [Example 3], in data set [5] (concluded from the bicuculline convulsion tests), the type of activity result is on record as “direct gabergic type”. The “inhibition of convulsions induced by bicuculline” value in data set [5] (intraperitoneally, 80 mg/kg, 0.5 mg/kg of bicuculline 30 minutes later) is “caused an inhibition of convulsions”. Also, in data set [5] (intraperitoneally, 80 mg/kg, second administration of bicuculline 5 hours later), the “inhibition of convulsions induced by a second administration of bicuculline” value is listed as “no longer inhibits convulsions”. In addition, the “action on GABA transaminase” value in data set [6] is reported as “does not act on the GABA transaminase”. In addition, the mortality entry in data set [2] (intraperitoneally at 200 mg/kg) and in data set [2] (orally at 300 mg/kg) was “did not cause any mortality” each time.

The values above are taken from US4499090A, “N-(5-aminomethyl-2-oxazolin-2-yl)-N'-phenylureas, compositions and use” (Societe Cortial, S.A., priority 1982, dated 1985).
